Among the data in patent US8501713B2, “Drug combinations for the treatment of duchenne muscular dystrophy” (Summit Corporation PLC, priority 2007, dated 2013) are activity and Activity values, retold here.

Bounds are passed on as bounds.

One assay has as its system Utrophin A promoter linked to a luciferase reporter gene. Kind of assay: Luciferase reporter assay (murine H2K cells). The class given is cell-based. The following applies: Mus musculus, H2K mdx, luciferase level relative to control; H2K/mdx/Utro A reporter cells; compound 10 μM final concentration; read-out: Activity. Put shortly:
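Compound at 10 μM final was applied for 48 hrs to plated H2K mdx myoblasts (33° C, 10% CO2, interferon-containing medium) bearing a luciferase gene under the utrophin A promoter. Luminescence from lysed cells served as read-out.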
Background: Reporter assays use an easily measured gene product as a stand-in for the process of interest.
Turning to `CCC(=O)c1ccc2oc(-c3ccc(Cl)cc3)nc2c1` [Example 417, 1-(2-(4-chlorophenyl)benzo[d]oxazol-5-yl)propan-1-one], the activity at 10 µM was greater than 401%.

For the molecule `CCC(=O)Nc1ccc2oc(-c3ccc(Cl)cc3)nc2c1` [Example 207, N-(2-(4-chlorophenyl)benzo[d]oxazol-5-yl)propionamide], the activity at 10 µM was greater than 401%.

Consider `Nc1ccc2oc(-c3ccc4cc(Br)ccc4c3)nc2c1` [Example 405, 2-(6-bromonaphthalen-2-yl)benzo[d]oxazol-5-amine], for which the activity at 10 µM was less than 200%.

Regarding `C[C@H](N)C(=O)Nc1ccc2oc(-c3ccc(Cl)cc3)nc2c1` [Example 272, (S)-2-amino-N-(2-(4-chlorophenyl)benzo[d]oxazol-5-yl)propanamide], the activity at 10 µM fell in the range of 301 to 400%.

As for `CC(=O)Nc1ccc(-c2nc3cc(-c4ccc(Cl)cc4)ccc3o2)cc1` [Example 372, N-(4-(5-(4-chlorophenyl)benzo[d]oxazol-2-yl)phenyl)acetamide], the activity at 10 µM is less than 200%.

Regarding `Nc1ccc2oc(CCc3ccccc3)nc2c1` [Example 280, 2-phenethylbenzo[d]oxazol-5-amine], the activity at 10 µM was greater than 401%.

On to `O=C(O)c1ccc2oc(-c3ccccc3)nc2c1` [Example 107, 2-phenylbenzo[d]oxazole-5-carboxylic acid], for which the activity at 10 µM was in the range of 301 to 400%.

For `Cc1ccc(-c2nc3cnccc3o2)cc1` [Example 192, 2-p-tolyloxazolo[4,5-c]pyridine], the activity at 10 µM was less than 200%.

In the case of `CC(C)C(=O)Nc1ccc2oc(Cc3ccccc3)nc2c1` [Example 228, N-(2-benzylbenzo[d]oxazol-5-yl)isobutyramide], the activity at 10 µM is less than 200%.

With `CC(C)NC(=S)c1ccc2oc(-c3ccc(Cl)cc3)nc2c1` [Example 274, 2-(4-chlorophenyl)-N-isopropylbenzo[d]oxazole-5-carbothioamide], the activity at 10 µM is less than 200%.

As to `COc1ccc(-c2nc3cc(NC(=O)c4ccco4)ccc3o2)cc1` [Example 140, N-(2-(4-methoxyphenyl)benzo[d]oxazol-5-yl)furan-2-carboxamide], the activity at 10 µM was less than 200%.

As for `CCN(CC)c1ccc(-c2nc3cc(NC(=O)c4cccs4)ccc3o2)cc1` [Example 79, N-(2-(4-(diethylamino)phenyl)benzo[d]oxazol-5-yl)thiophene-2-carboxamide], the activity at 10 µM is less than 200%.

Regarding `CCCC(=O)Nc1ccc2oc(-c3ccccc3Cl)nc2c1` [Example 229, N-(2-(2-chlorophenyl)benzo[d]oxazol-5-yl)butyramide], the activity at 10 µM lay in the range of 301 to 400%.

Take `O=C(Nc1ccc2oc(-c3ccc(Cl)cc3)nc2c1)c1ccc(C(F)(F)F)cc1` [Example 94, N-(2-(4-chlorophenyl)benzo[d]oxazol-5-yl)-4-(trifluoromethyl)benzamide]: the activity at 10 µM was less than 200%.

With `O=C(CCc1ccccc1)Nc1ccc2oc(-c3cccnc3)nc2c1` [Example 51, 3-phenyl-N-(2-(pyridin-3-yl)benzo[d]oxazol-5-yl)propanamide], the activity at 10 µM was less than 200%.

Consider `Cc1ccc(-c2nc3cc(Br)cnc3o2)cc1` [Example 212, 6-bromo-2-p-tolyloxazolo[5,4-b]pyridine], for which the activity at 10 µM lay in the range of 201 to 300%.

Regarding `CC(C)C(=O)Nc1ccc2oc(-c3cc(F)ccc3Cl)nc2c1` [Example 344, N-(2-(2-chloro-5-fluorophenyl)benzo[d]oxazol-5-yl)isobutyramide], the activity at 10 µM was less than 200%.

As to `CN(C)c1ccc(C(=O)Nc2ccc3oc(-c4ccc(Cl)cc4)nc3c2)cc1` [Example 93, N-(2-(4-chlorophenyl)benzo[d]oxazol-5-yl)-4-(dimethylamino)benzamide], the activity at 10 µM was less than 200%.

Turning to `CC(C)C(=O)Nc1ccc2oc(-c3ccc(Cl)c(Cl)c3)nc2c1` [Example 268, N-(2-(3,4-dichlorophenyl)benzo[d]oxazol-5-yl)isobutyramide], the activity at 10 µM was greater than 401%.

On to `CC(C)C(=O)Nc1ccc(-c2nc3cc(Cl)ccc3o2)cc1` [Example 318, N-(4-(5-chlorobenzo[d]oxazol-2-yl)phenyl)isobutyramide], for which the activity at 10 µM fell in the range of 201 to 300%.

For the molecule `CCN(CC)c1ccc(-c2nc3cc(Cl)ccc3o2)cc1` [Example 131, 4-(5-chlorobenzo[d]oxazol-2-yl)-N,N-diethylaniline], the activity at 10 µM is 301 to 400%.

For `Cc1ccc(-c2nc3cc(NC(=O)c4ccco4)ccc3o2)cc1` [Example 119, N-(2-p-tolylbenzo[d]oxazol-5-yl)furan-2-carboxamide], the activity at 10 µM is less than 200%.

Consider `O=C(Nc1ccc2oc(-c3cccnc3)nc2c1)c1ccc(Cl)c(Cl)c1` [Example 45, 3,4-dichloro-N-(2-(pyridin-3-yl)benzo[d]oxazol-5-yl)benzamide], for which the activity at 10 µM is less than 200%.

For the molecule `O=C(Nc1ccc2oc(-c3cccnc3)nc2c1)c1cc(Cl)cc(Cl)c1` [Example 47, 3,5-dichloro-N-(2-(pyridin-3-yl)benzo[d]oxazol-5-yl)benzamide], the activity at 10 µM was less than 200%.

As for `O=C(CC(F)(F)F)Nc1ccc2oc(-c3cccc(Cl)c3Cl)nc2c1` [Example 363, N-(2-(2,3-dichlorophenyl)benzo[d]oxazol-5-yl)-3,3,3-trifluoropropanamide], the activity at 10 µM is greater than 401%.

On to `CC(C)C(=O)Nc1ccc2oc(-c3cccc(F)c3)nc2c1` [Example 245, N-(2-(3-fluorophenyl)benzo[d]oxazol-5-yl)isobutyramide], for which the activity at 10 µM lay within 301 to 400%.

As for `Cc1ccc2oc(-c3ccc4ccccc4c3)nc2c1` [Example 458, 5-Methyl-2-(naphthalen-2-yl)benzo[d]oxazole], the activity at 10 µM was greater than 401%.

As to `Cc1ccc(-c2nc3cc(NC(=O)c4ccc(Cl)cc4)ccc3o2)cc1` [Example 19, 4-chloro-N-(2-p-tolylbenzo[d]oxazol-5-yl)benzamide], the activity at 10 µM is less than 200%.

As to `Clc1ccc2oc(-c3ccncc3)nc2c1` [Example 330, 5-chloro-2-(pyridin-4-yl)benzo[d]oxazole], the activity at 10 µM was less than 200%.

For `O=C(c1ccccc1)c1ccc2nc(-c3ccccc3)[nH]c2c1` [Example 5, phenyl(2-phenyl-1H-benzo[d]imidazol-6-yl)methanone], the activity at 10 µM was less than 200%.

With `CCCC(=O)Nc1ccc2oc(-c3cccnc3)nc2c1` [Example 54, N-(2-(pyridin-3-yl)benzo[d]oxazol-5-yl)butyramide], the activity at 10 µM was less than 200%.

Take `CCSc1cccc(-c2ccc3oc(-c4ccc(Cl)cc4)nc3c2)c1` [Example 292, 2-(4-chlorophenyl)-5-(3-(ethylthio)phenyl)benzo[d]oxazole]: the activity at 10 µM lay within 201 to 300%.

Regarding `CCCCC(=O)Nc1ccc2oc(-c3ccccc3)nc2c1` [Example 11, N-(2-phenylbenzo[d]oxazol-5-yl)pentanamide], the activity at 10 µM lay in the range of 201 to 300%.

Turning to `COc1ccccc1C(=O)Nc1ccc2oc(-c3ccc(Cl)cc3)nc2c1` [Example 92, N-(2-(4-chlorophenyl)benzo[d]oxazol-5-yl)-2-methoxybenzamide], the activity at 10 µM is less than 200%.

On to `O=C(Cc1ccccc1)Nc1ccc2oc(Cc3ccccc3)nc2c1` [Example 165, N-(2-benzylbenzo[d]oxazol-5-yl)-2-phenylacetamide], for which the activity at 10 µM was less than 200%.

For the molecule `CC(=O)Nc1ccc2oc(-c3ccc4ccccc4c3)nc2c1` [Example 373, N-(2-(naphthalen-2-yl)benzo[d]oxazol-5-yl)acetamide], the activity at 10 µM was greater than 401%.

Still in this assay, the particulars now being: luciferase level relative to control; H2K/mdx/Utro A reporter cells; compound 10 μM final concentration.
For the molecule `O=C(O)c1cccc(-c2ccc3oc(-c4ccc(Cl)cc4)nc3c2)c1` [Example 313, 3-(2-(4-chlorophenyl)benzo[d]oxazol-5-yl)benzoic acidd], the Activity result is on record as “+ (Up to 200% relative to control)”.

Staying with this assay, now noted: luciferase reporter assay in murine H2K cells; classified relative to control.
As to `COc1ccc(C(=O)Nc2ccc(-c3nc4ccccc4[nH]3)cc2)cc1OC` [Example 494], the Activity result is on record as “+ (Up to 200% relative to control)”.

Consider `Clc1ccc(OCc2nc3ccccc3[nH]2)c(Cl)c1` [Example 461], for which the Activity result is “+++ (Between 301% and 400% relative to control)”.

`Cc1cc(-c2nc3cc(Cl)ccc3o2)ccc1[N+](=O)[O-]` [Example 539]: the Activity entry is “+ (Up to 200% relative to control)”.

In the case of `CCOc1ccc2nc(NC(=O)c3ccccc3)sc2c1` [Example 555], the Activity result is given as “+ (Up to 200% relative to control)”.

With `Oc1ccc2nc(-c3ccc(Cl)cc3)oc2c1` [Example 579], the Activity entry is “++++ (Above 401% relative to control)”.

As for `Cc1ccc2nc(-c3ccc(NC(=O)c4ccccc4C(=O)O)cc3)sc2c1` [Example 545], the Activity result is on record as “+ (Up to 200% relative to control)”.

Take `COc1ccc(CSc2nc3ccccc3n2C)cc1F` [Example 645]: the Activity entry was “+++ (Between 301% and 400% relative to control)”.

For the molecule `COc1ccc(-c2nc3cc(NC(C)=O)ccc3o2)cc1Cl` [Example 519], the Activity entry was “++ (Between 201% and 300% relative to control)”.

Take `CNC(=O)Nc1ccc2nc(C)oc2c1` [Example 467]: the Activity entry is given as “+ (Up to 200% relative to control)”.

For the molecule `COc1ccc(-c2nc3ccccc3n2C)cc1OC` [Example 521], the Activity result is “+ (Up to 200% relative to control)”.

`Cc1ccc2oc(-c3ccc([N+](=O)[O-])cc3)nc2c1` [Example 505]: the Activity result was “++ (Between 201% and 300% relative to control)”.

Regarding `Cc1ccccc1C(=O)Nc1nc2ccccc2[nH]1` [Example 648], the Activity result was “+++ (Between 301% and 400% relative to control)”.

Consider `COc1ccc(-c2nc3cc(C)ccc3o2)cc1` [Example 675], for which the Activity entry is “++ (Between 201% and 300% relative to control)”.

As for `O=C(NCCc1ccccc1)c1cc2ccccc2o1` [Example 665], the Activity result was “++ (Between 201% and 300% relative to control)”.

As for `O=C(Nc1cccc(-c2nc3ccccc3[nH]2)c1)c1ccccc1` [Example 464], the Activity result is reported as “+ (Up to 200% relative to control)”.

In the case of `O=C(Nc1ccc(-c2nc3ccccc3[nH]2)cc1)c1ccco1` [Example 562], the Activity entry is “+++ (Between 301% and 400% relative to control)”.
